Patent US20190145962A1, “PEPTIDE FOR […] OF AMYLOSPHEROIDS (ASPD), AND […] SCREENING METHOD” (TAO HEALTH LIFE PHARMA CO., LTD., priority 2016, published 2019)

Key:
[1] = system: binding of ASPD to neurons (synthetic ASPD, primary cultured rat hippocampal neurons); assay: Evaluation of ASPD-inhibitory peptides: inhibition of binding of ASPD to cultured neurons (immunofluorescence imaging, titer); assay type: cell-based; conditions: for effect of inhibiting binding of ASPD to neurons: qualitative, evaluation of section 1; for ASPD-binding inhibitory ability (titer) compared with known ASPD neutralizing peptide 01 (HFNW): qualitative comparison with peptide 01, FIG. 3 and FIG. 4
Method: Evaluation of peptides that inhibits binding of ASPD to neurons was performed by the following method.
Step 1: Adding a liquid mixture containing peptide and ASPD, which have been mixed together and then incubated, to cultured mature neurons.
Step 2: Degenerating (immobilizing) the neurons.
Step 3: Immunostaining the neurons and the ASPD, respectively, to perform imaging.
Step 4: Analyzing the image to quantify the ASPD bound to the neurons.
Step 5: Evaluating the peptides using the amount of the ASPD bound and/or an analytical value obtained therefrom.
Steps 1 to 3 were performed as follows:
A liquid mixture of peptide and synthetic ASPD was incubated at 4° C. for 15 minutes to pretreat the ASPD and this liquid mixture was added to primary cultured rat hippocampal neurons cultured in a 96-well plate.
After incubation at 37° C. for 15 minutes in a CO2 incubator, the wells were washed with PBS. Then, 2% paraformaldehyde (50 μl/well) was added thereto for immobilization performed for 20 minutes at 37° C. and further 4% paraformaldehyde (50 μl/well) was added thereto for immobilization performed for 20 minutes at 37° C. After washing and blocking, a primary antibody solution containing anti-ASPD antibody (mASD3) and anti-MAP2 antibody (trade name: sc-20172, manufactured by SANTACRUZ) was added, which then was left overnight. After washing, a secondary antibody solution containing Alexa Fluoro (trademark) 568 anti-mouse antibody (trade name: A11031, manufactured by life technologies), Alexa Fluoro (trademark) 488 anti-rabbit antibody (trade name: A11034, manufactured by life technologies), and DAPI (trade name: D523, manufactured by Dojindo) was added and then fluorescence microscopic observation was performed.
Subsequently, steps 4 to 5 were performed as follows: From the microscopic observation data, a calibration curve as shown in FIG. 2 was drawn, an approximate curve was created within a range where linearity was maintained, and then ED50 was calculated. Using, as an indicator, “titer” that is defined by the ratio of ED50 of the ASPD treated with peptide to ED50 of the ASPD alone, the ASPD-binding inhibitory ability of peptide was evaluated.
Titer=ED50[ASPD+Peptide]/ED50[ASPD]

Synthetic ASPD = biological target: T1, Synthetic ASPD (Homo sapiens, UniProt P05067); assay: Surface plasmon resonance (SPR), synthetic ASPD solid-phased on a chip, peptide as analyte; assay type: binding; conditions: class symbols, key not given; the dissociation constant (KD) was determined but is not given
T1 construct: can be produced by slowly rotating a liquid containing Aß
T1 sequence (P05067 672-713 limits assumed): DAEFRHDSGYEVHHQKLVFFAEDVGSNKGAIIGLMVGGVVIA
Method: Synthetic ASPD were solid-phased on a chip and each peptide shown in Table 3 below was allowed to flow as an analyte. Then the dissociation constant (KD) was determined by surface plasmon resonance (SPR).

HFNW [Peptide 01, known ASPD neutralizing peptide, reference compound]
effect of inhibiting binding of ASPD to neurons [1]: showed the effect of inhibiting binding of ASPD to neurons

HPNW [reference compound]
Results of SPR (Ability to Bind to ASPD) (Synthetic ASPD): No binding was found.
effect of inhibiting binding of ASPD to neurons [1]: could not inhibit the binding of ASPD to neurons

HTNW [Peptide 09]
ASPD-binding inhibitory ability (titer) compared with known ASPD neutralizing peptide 01 (HFNW) [1]: comparable to that of known ASPD neutralizing peptide 01 (HFNW)
effect of inhibiting binding of ASPD to neurons [1]: showed the effect of inhibiting binding of ASPD to neurons

HHNW [Peptide 05]
ASPD-binding inhibitory ability (titer) compared with known ASPD neutralizing peptide 01 (HFNW) [1]: comparable to that of known ASPD neutralizing peptide 01 (HFNW)
effect of inhibiting binding of ASPD to neurons [1]: showed the effect of inhibiting binding of ASPD to neurons

HYNW [Peptide 08]
effect of inhibiting binding of ASPD to neurons [1]: showed the effect of inhibiting binding of ASPD to neurons

HFDW [Peptide 18]
effect of inhibiting binding of ASPD to neurons [1]: showed the effect of inhibiting binding of ASPD to neurons

HFKW [Peptide 22]
ASPD-binding inhibitory ability (titer) compared with known ASPD neutralizing peptide 01 (HFNW) [1]: superior

HANW [Peptide 10]
ASPD-binding inhibitory ability (titer) compared with known ASPD neutralizing peptide 01 (HFNW) [1]: comparable to that of known ASPD neutralizing peptide 01 (HFNW)

HFRW [Peptide 16]
ASPD-binding inhibitory ability (titer) compared with known ASPD neutralizing peptide 01 (HFNW) [1]: superior

HFWW [Peptide 15]
effect of inhibiting binding of ASPD to neurons [1]: showed the effect of inhibiting binding of ASPD to neurons

HNNW [reference compound]
Results of SPR (Ability to Bind to ASPD) (Synthetic ASPD): No binding was found.
effect of inhibiting binding of ASPD to neurons [1]: could not inhibit the binding of ASPD to neurons

HVNW [Peptide 11]
ASPD-binding inhibitory ability (titer) compared with known ASPD neutralizing peptide 01 (HFNW) [1]: comparable to that of known ASPD neutralizing peptide 01 (HFNW)
